Assay [1] deals with T1, Tau (recombinant human tau, Tau441wt) (Homo sapiens, UniProt P10636, DEL125-375/DEL395-460/DEL597-597).
T1 construct: gene MAPT; full-length Tau441, pET-3d, E. coli BL21(DE3)pLysS; anion exchange and phosphocellulose chromatography
As to the kind of experiment: heparin-induced aggregation, ultracentrifugation sedimentation assay. It counts as biochemical. Conditions: 2-20 µM PHOX15, 24 h, 37 °C, pH 7.4, 200 µg/ml heparin, 1% DMSO.

For assay [2], the target named is T2, PAGFP-Tau / PAGFP-TauΔK280 (Homo sapiens, UniProt P10636, DEL125-375/DEL395-460/DEL597-597).
T2 construct: gene MAPT
As to the kind of experiment: FDAP live-cell imaging, effective diffusion constant of tau (restored microtubule binding). It counts as cell-based. An excerpt:
FDAP live-cell imaging, effective diffusion constant of tau (restored microtubule binding) on PAGFP-Tau / PAGFP-TauΔK280 | IC50 value of the activity of PHOX15 to restore microtubule binding of TauΔK280, obtaining

The target in assay [3] is T3, Tau (recombinant human tau, Tau441wt) (Homo sapiens, UniProt P10636).
T3 construct: gene MAPT; full-length Tau441, pET-3d, E. coli BL21(DE3)pLysS; anion exchange and phosphocellulose chromatography
Nature of the assay: heparin-induced aggregation, ultracentrifugation sedimentation assay. It counts as biochemical. Conditions: 20 µM PHOX15 (significant, p = 0.0494), 24 h, 37 °C, pH 7.4, 200 µg/ml heparin, 1% DMSO.

Each structure is given as a SMILES string.

We go through 1 molecule from publication PMC10891143, “Quantitative live cell imaging of a tauopathy model enables the identification of a polypharmacological drug candidate that restores physiological microtubule interaction” (Nature Communications, 2024).

T3 sequence (P10636 1-441 isoform P10636-8): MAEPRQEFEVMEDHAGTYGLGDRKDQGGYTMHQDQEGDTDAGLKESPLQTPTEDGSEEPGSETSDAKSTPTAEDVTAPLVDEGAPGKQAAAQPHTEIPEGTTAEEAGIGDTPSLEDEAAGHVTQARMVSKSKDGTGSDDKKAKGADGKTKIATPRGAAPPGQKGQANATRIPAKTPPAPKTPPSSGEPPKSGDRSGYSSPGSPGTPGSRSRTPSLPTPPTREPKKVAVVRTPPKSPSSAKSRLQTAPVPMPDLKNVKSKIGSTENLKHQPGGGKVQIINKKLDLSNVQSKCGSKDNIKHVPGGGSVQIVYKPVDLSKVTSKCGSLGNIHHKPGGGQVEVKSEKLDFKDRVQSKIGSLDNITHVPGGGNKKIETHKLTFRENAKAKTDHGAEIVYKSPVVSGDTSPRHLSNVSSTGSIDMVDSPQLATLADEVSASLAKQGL
T2 sequence (P10636 with tags, fused parts or gaps DEL125-375/DEL395-460/DEL597-597): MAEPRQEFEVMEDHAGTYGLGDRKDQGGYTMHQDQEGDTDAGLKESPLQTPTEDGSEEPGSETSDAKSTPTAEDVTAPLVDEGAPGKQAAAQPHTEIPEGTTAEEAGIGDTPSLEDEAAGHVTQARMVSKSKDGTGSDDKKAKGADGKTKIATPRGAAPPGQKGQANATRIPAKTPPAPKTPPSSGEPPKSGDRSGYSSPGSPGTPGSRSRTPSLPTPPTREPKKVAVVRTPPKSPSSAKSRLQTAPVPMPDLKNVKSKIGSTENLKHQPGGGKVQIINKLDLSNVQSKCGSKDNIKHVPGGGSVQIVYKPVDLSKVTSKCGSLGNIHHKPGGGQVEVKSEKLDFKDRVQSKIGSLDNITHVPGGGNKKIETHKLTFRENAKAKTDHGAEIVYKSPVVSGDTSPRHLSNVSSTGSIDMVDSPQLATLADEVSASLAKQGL
T1 sequence (P10636 with tags, fused parts or gaps DEL125-375/DEL395-460/DEL597-597): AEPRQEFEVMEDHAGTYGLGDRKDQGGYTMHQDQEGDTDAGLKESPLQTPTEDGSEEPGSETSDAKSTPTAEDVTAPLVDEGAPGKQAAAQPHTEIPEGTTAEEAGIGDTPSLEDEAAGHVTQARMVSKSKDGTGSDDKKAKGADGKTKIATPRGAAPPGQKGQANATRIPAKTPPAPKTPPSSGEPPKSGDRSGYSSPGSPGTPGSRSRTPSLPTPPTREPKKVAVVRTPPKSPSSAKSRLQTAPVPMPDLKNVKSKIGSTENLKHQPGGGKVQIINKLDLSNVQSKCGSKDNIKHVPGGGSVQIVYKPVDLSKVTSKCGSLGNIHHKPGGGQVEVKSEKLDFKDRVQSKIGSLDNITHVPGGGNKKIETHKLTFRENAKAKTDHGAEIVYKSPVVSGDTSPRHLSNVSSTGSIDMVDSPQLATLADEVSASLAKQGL

For orientation: IC50 means the concentration that gives 50% inhibition. As for `O=C(Nc1ccccc1)c1coc(-c2ccc(O)cc2O)n1` [PHOX15, 2-(2,4-dihydroxyphenyl)-N-phenyloxazole-4-carboxamide], in assay [1], the “% reduction of filament formation” value is on record as ~ 20%. Also, the IC50 in assay [2] is 14 µM. The “fraction of aggregated tau” value in assay [3] was “PHOX15 decreases aggregation of recombinant TauΔK280 and human wild-type tau (Tau) in vitro”.
